Measurements reported in patent publication US20190090524A1, “NOVEL COMPOSITIONS FOR FLAVOR ENHANCEMENT” (INTERNATIONAL FLAVORS & FRAGRANCES INC., priority 2016, published 2019).

Tests used:
Assay type in all cases: in vivo
[1] = Alcohol impression in alcohol-free beer, panel comparison with alcohol solutions; conditions: 25 ppb in Brahma 0.0% alcohol free beer
Protocol: 1. […] 2. Alcohol solutions containing varying amounts of ethanol (Alcohol by Volume, “ABV”) were prepared as follows: • Alcohol solutions at 1% ABV, 2% ABV, 2.5% ABV, 3% ABV and 5% ABV were prepared by adding varying amounts of ethanol in Brahma 0.0% alcohol-free beer (Anheuser-Busch InBev); • Alcohol solution at 6% ABV was prepared by adding ethanol in water; and • Alcohol solutions with ABV ranging from 8.75% to 50% were prepared by diluting CAPTAIN MORGAN® Original Spiced Rum (35% ABV) (Diageo North America Inc.) in varying amounts of water. 3. Carbonated water containing carbon dioxide at 6.0, 7.2 and 8.0 g/L, respectively, were prepared.
A β-sitosterol solution (prepared in Example I) was added in Brahma 0.0% alcohol free beer to yield a final concentration of 25 ppb. The alcohol impression of the obtained sample was evaluated and compared by a panel with alcohol solutions at 1% ABV, 2% ABV, 2.5% ABV, 3% ABV and 5% ABV (prepared in Example I). 3-Sitosterol (25 ppb) provided an equal level of alcohol impression as the alcohol solution at 2.5% ABV.

[2] = Flavor of β-sitosterol solutions in water; conditions: 2.5 to 600 ppb
[3] = Alcohol sensation of alcohol solutions with 25 ppb β-sitosterol, panel comparison with higher ABV solutions
Protocol: (C) A β-sitosterol solution (prepared in Example I) was added to alcohol solutions at 8.75% ABV, 17.5% ABV and 21.75% ABV (prepared in Example I), respectively, to yield a final concentration of 25 ppb. The alcohol sensation of the obtained samples was evaluated and compared by a panel with alcohol solutions at higher levels of ABV, respectively.

[4] = Carbonation sensation in carbonated water (7.2 g/L CO2) with 0.1 to 50 ppt β-sitosterol
Protocol: (B) A series of β-sitosterol solutions (prepared in Example I) were added to the carbonated water (7.2 g/L CO2) (prepared in Example I) to yield final concentrations ranging from 0.1 to 50 ppt. The carbonation sensation of the obtained samples containing different amounts of […] was evaluated.

[5] = Alcohol sensation intensity in 6% ABV solution, panel, scale 0 to 10; conditions: mean; 100 ppb in solution of 6% ABV; scale 0 to 10 (0=none, 4=medium, 7=high, 10=extremely high); p<0.01 vs 6% ABV alone
Protocol: (A) A β-sitosterol solution (prepared in Example I) was added to the alcohol solution at 6% ABV (prepared in Example I) to yield a final concentration of 100 ppb.
The alcohol sensation of the obtained sample was evaluated and compared by a panel with the alcohol solution at 6% ABV using an intensity scale of 0 to 10, where 0=none, 4=medium, 7=high and 10=extremely high. The intensity of alcohol sensation was rated. Mean (“Alcohol Intensity”) and standard error of the mean (“SE”, +) were obtained.

[6] = Carbonation effect intensity in carbonated water (7.2 g/L CO2), panel, scale 0 to 10; conditions: mean; 2.5 ppt in carbonated water 7.2 g/L CO2; scale 0 to 10 (0=none, 4=medium, 7=high, 10=extremely high); p<0.01 vs carbonated water alone
Protocol: (A) A β-sitosterol solution (prepared in Example I) was added to the carbonated water (7.2 g/L CO2) (prepared in Example I) to yield a final concentration of 2.5 ppt.
The carbonation effect of the obtained sample was evaluated and compared by a panel with the carbonated water using an intensity scale of 0 to 10, where 0=none, 4=medium, 7=high and 10=extremely high. The intensity of carbonation effect was rated. Mean (“Carbonation Intensity”) and standard error of the mean (“SE”, +) were obtained.

[7] = Alcohol sensation in 17.5% ABV solution with 3 to 500 ppb β-sitosterol
Protocol: (B) A series of β-sitosterol solutions (prepared in Example I) were added to the alcohol solution at 17.5% ABV (prepared in Example I) to yield final concentrations of β-sitosterol ranging from 3 to 500 ppb. The alcohol sensation of the obtained samples containing different amounts of β-sitosterol was evaluated.

[8] = Carbonation sensation in carbonated water of 6.0, 7.2 and 8.0 g/L CO2 with 2.5 ppt β-sitosterol; conditions: 2.5 ppt in carbonated water of 6.0, 7.2 and 8.0 g/L CO2, all samples
Protocol: (C) A β-sitosterol solution (prepared in Example I) was added to carbonated water of 6.0, 7.2 and 8.0 g/L CO2 (prepared in Example I), respectively, to yield a final concentration of 2.5 ppt. The carbonation sensation of the obtained samples was evaluated.

Compound: CC[C@H](CC[C@@H](C)[C@H]1CC[C@H]2[C@@H]3CC=C4C[C@@H](O)CC[C@]4(C)[C@H]3CC[C@]12C)C(C)C [β-sitosterol, (3S,8S,9S,10R,13R,14S,17R)-17-((1R,4R)-4-ethyl-1,5-dimethyl-hexyl)-10,13-dimethyl-2,3,4,7,8,9,10,11,12,13,14,15,16,17-tetradecahydro-1H-cyclopenta[a]phenanthren-3-ol]
- alcohol impression, equal level as alcohol solution [1]: 2.5 % ABV
- flavor of β-sitosterol itself [2]: no noticeable flavor
- alcohol sensation at the level of an alcohol solution ([3]; 25 ppb in alcohol solution at 8.75% ABV): 10 % ABV
- alcohol sensation at the level of an alcohol solution ([3]; 25 ppb in alcohol solution at 17.5% ABV): 22.5 % ABV
- alcohol sensation at the level of an alcohol solution ([3]; 25 ppb in alcohol solution at 21.75% ABV): 35 % ABV
- carbonation perception ([4]; 0.1 ppt in carbonated water 7.2 g/L CO2): slight increase in carbonation perception
- carbonation perception ([4]; 2.5 ppt in carbonated water 7.2 g/L CO2): clear increase in carbonation perception
- enhancement of carbonation effect ([4]; 5 ppt or higher in carbonated water 7.2 g/L CO2): reached a stable plateau
- Alcohol Intensity [5]: 7.21
- Carbonation Intensity [6]: 7.19
- alcohol sensation ([7]; 3 ppb in alcohol solution at 17.5% ABV): slight but noticeable increase in alcohol sensation
- enhancement of alcohol sensation ([7]; 200 ppb in alcohol solution at 17.5% ABV): reached a stable plateau
- alcohol sensation ([7]; at a higher concentration than 3 ppb in alcohol solution at 17.5% ABV): clear increase of alcohol intensity
- carbonation sensation [8]: provided enhancement of carbonation sensation
